Measured values: ChEMBL document CHEMBL1201862, “PubChem BioAssay data set” (2004)
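Compound exposure: 48 hours, 5 concentrations, 96-well plates. GI50 = concentration required for 50% inhibition of growth.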 Calls of active or inactive are those of the source. Cut-off read from the data, not from the text of the source: active = GI50 up to about 1.1 µM and inactive = higher.

Tests used:
Experiment in all cases: NCI anticancer screen, dose series, 48 h
RXF 393 = tested on: RXF 393
U-251 = tested on: U-251
DU-145 = tested on: DU-145
MOLT-4 = tested on: MOLT-4
OVCAR-3 = tested on: OVCAR-3
NCI-H23 = tested on: NCI-H23
A498 = tested on: A498
MDA-N = tested on: MDA-N
NCI-H226 = tested on: NCI-H226
HCT-116 = tested on: HCT-116
OVCAR-5 = tested on: OVCAR-5
PC-3 = tested on: PC-3
SK-MEL-2 = tested on: SK-MEL-2
LOX IMVI = tested on: LOX IMVI
Malme-3M = tested on: Malme-3M
IGROV-1 = tested on: IGROV-1
BT-549 = tested on: BT-549
HCT-15 = tested on: HCT-15
NCI-H460 = tested on: NCI-H460
K562 = tested on: K562

Measured: GI50

CCC1OC(=O)CC(O)C(C)C(OC2OC(C)CC(N(C)C)C2O)C(CC=O)CC(C)C(=O)/C=C/C2(C)OC2C1C (stereo not given)
18.3 µM: HCT-15
inactive: RXF 393 17.2 µM | U-251 14.8 µM | DU-145 23.2 µM | MOLT-4 16.5 µM | OVCAR-3 22.8 µM | NCI-H23 19 µM | A498 25.9 µM | MDA-N 25.8 µM | NCI-H226 16.3 µM | HCT-116 15.8 µM | OVCAR-5 41.3 µM | PC-3 26.6 µM | SK-MEL-2 45.2 µM | LOX IMVI 17.3 µM | Malme-3M 21.7 µM | IGROV-1 10.3 µM | BT-549 15.1 µM | NCI-H460 > 100 µM | K562 6.76 µM

CCOC(=O)CSc1nnc2cc(CN3CCCC3)c(-c3ccc(Cl)cc3)nn12
> 100 µM: HCT-15
inactive: RXF 393 86.5 µM | U-251 > 100 µM | DU-145 71.6 µM | MOLT-4 38.5 µM | OVCAR-3 > 100 µM | NCI-H23 > 100 µM | A498 > 100 µM | MDA-N 85.9 µM | NCI-H226 > 100 µM | HCT-116 > 100 µM | OVCAR-5 > 100 µM | PC-3 > 100 µM | SK-MEL-2 > 100 µM | LOX IMVI > 100 µM | Malme-3M > 100 µM | IGROV-1 > 100 µM | BT-549 > 100 µM | NCI-H460 48.4 µM | K562 83.8 µM

Cn1ccnc1Sc1ccc(/C=N/c2ccc3nc(SCC(=O)NC4CCCCC4)sc3c2)cc1[N+](=O)[O-]
> 100 µM: HCT-15
inactive: RXF 393 7.45 µM | U-251 8.09 µM | DU-145 > 100 µM | MOLT-4 > 100 µM | OVCAR-3 91.6 µM | NCI-H23 37.5 µM | A498 14.6 µM | MDA-N > 100 µM | NCI-H226 > 100 µM | HCT-116 25.9 µM | OVCAR-5 > 100 µM | PC-3 > 100 µM | SK-MEL-2 18.6 µM | LOX IMVI 95.1 µM | Malme-3M > 100 µM | IGROV-1 37.1 µM | BT-549 14.1 µM | NCI-H460 > 100 µM | K562 > 100 µM

CC(=O)NS(=O)(=O)c1ccc(NCc2cccc3c(=O)c4ccc(Cl)cc4oc23)cc1
inactive: RXF 393 20.4 µM | U-251 31.6 µM | DU-145 61 µM | MOLT-4 11.5 µM | OVCAR-3 44.6 µM | NCI-H23 33 µM | A498 41.9 µM | MDA-N 42.6 µM | NCI-H226 93.3 µM | HCT-116 > 26.7 µM | OVCAR-5 > 100 µM | PC-3 38.5 µM | SK-MEL-2 46 µM | LOX IMVI > 33.2 µM | Malme-3M 26.4 µM | IGROV-1 24.8 µM | BT-549 > 54.2 µM | NCI-H460 19.7 µM | K562 6.14 µM
7.76 µM: HCT-15

CC1=[N+](C)CCCN1C
> 100 µM: HCT-15
inactive: RXF 393 > 100 µM | U-251 > 100 µM | DU-145 > 100 µM | MOLT-4 > 100 µM | OVCAR-3 > 100 µM | NCI-H23 > 100 µM | A498 8.69 µM | MDA-N > 100 µM | NCI-H226 > 100 µM | HCT-116 > 100 µM | OVCAR-5 > 100 µM | PC-3 > 100 µM | SK-MEL-2 > 100 µM | LOX IMVI > 100 µM | Malme-3M > 100 µM | IGROV-1 > 100 µM | BT-549 > 100 µM | NCI-H460 > 100 µM | K562 > 100 µM
